Reference: PMC4847728 (ACS chemical biology, 2015)
Converted amounts (≈) assume the structure as drawn.

Key:
[1] = system: in vitro protein synthesis (E. coli S30 Extract System); experiment: In vitro transcription-translation coupled assay; format: biochemical; details: read-out: IC50, in vitro translation inhibition, pBESTLuc template, 37 °C, 1 h, triplicate
Bacillus sp. ATCC 27859 = experiment: MIC, liquid microdilution, Bacillus; format: cell-based; details: 18 h, 37 °C
[2] = system: Staphylococcus aureus ATCC 10537 (MRSA); experiment: MIC, liquid microdilution, MRSA; format: cell-based; details: 18 h, 37 °C
[3] = system: Enterococcus faecium ATCC 12952 (VRE); experiment: MIC, liquid microdilution, VRE; format: cell-based; details: 18 h, 37 °C

C=C(NC(=O)C(=C)NC(=O)c1csc(C2=N[C@@H]3c4csc(n4)[C@H]4NC(=O)c5csc(n5)[C@H]([C@](C)(O)[C@@H](C)O)NC(=O)[C@H]5CSC(=N5)/C(=C/C)NC(=O)[C@H]([C@@H](C)O)NC(=O)c5csc(n5)[C@]3(CC2)NC(=O)[C@H](C)NC(=O)C(=C)NC(=O)[C@H](C)NC(=O)[C@H]([C@@H](C)CC)N[C@@H]2C=Cc3c([C@H](C)O)cc(nc3[C@H]2O)C(=O)O[C@@H]4C)n1)C(N)=O [Thiostrepton A, thiostrepton A]
IC50 [1]: 630 ± 10 nM
MIC Bacillus (Bacillus sp. ATCC 27859): 0.025 µg/mL (≈ 15 nM)
MIC MRSA [2]: 0.012 µg/mL (≈ 7.21 nM)
MIC VRE [3]: 0.012 µg/mL (≈ 7.21 nM)
